This note sets out measurements from PMC2248166, “Quantitative peptide binding motifs for 19 human and mouse MHC class I molecules derived using positional scanning combinatorial peptide libraries” (Immunome Research, 2008).

By IC50 is commonly meant the midpoint of a concentration-inhibition curve. A higher IC50 goes with a need for much substance.

Where a SMILES comes first, the peptide text is derived from it.

The target of the test is HLA B*1501 (Homo sapiens, UniProt P01889, A329T/A93T/A95T/C349S/D201E/D98Y/E187L/E204Q/E69M/E70A/K202T/N87E/Q94N/R155S/R180W/S121R/S35A/S48A/V306I/V36M/Y140S/Y91S). The test is described as follows: biochemical. The class given is binding.
`CC[C@H](C)[C@H](NC(=O)[C@@H](NC(=O)[C@@H](N)CO)[C@@H](C)CC)C(=O)N[C@H](C(=O)N[C@@H](CC(C)C)C(=O)N[C@@H](Cc1ccccc1)C(=O)N[C@@H](CCC(N)=O)C(=O)N[C@@H](CCCNC(=N)N)C(=O)N[C@@H](Cc1ccccc1)C(=O)O)C(C)C` [3102.0801] (H-SIIVLFQRF-OH) registered an IC50 of 1.1 nM.
With `CSCC[C@H](NC(=O)[C@H](CCC(=O)O)NC(=O)[C@H](C)NC(=O)[C@H](CC(N)=O)NC(=O)[C@H](CCC(=O)O)NC(=O)[C@H](CCCCN)NC(=O)[C@H](CC(N)=O)NC(=O)[C@H](CCSC)NC(=O)[C@@H](N)CC(C)C)C(=O)O` [3102.0802] (H-LMNKENAEM-OH) the figure was 7.7 nM; with `CC[C@H](C)[C@H](NC(=O)[C@@H](NC(=O)[C@@H](N)CC(C)C)[C@@H](C)CC)C(=O)N[C@@H](CCCCN)C(=O)N[C@@H](CO)C(=O)N[C@@H](CC(=O)O)C(=O)N[C@@H](Cc1c[nH]cn1)C(=O)N[C@@H](CCC(=O)O)C(=O)N[C@@H](Cc1ccccc1)C(=O)O` [3102.0804] (H-LIIKSDHEF-OH), 1.6 nM; with `CC[C@H](C)[C@H](NC(=O)[C@H](CCSC)NC(=O)[C@@H](N)CCC(=O)O)C(=O)N[C@@H](CC(C)C)C(=O)N[C@@H](CO)C(=O)N[C@H](C(=O)N[C@@H](CO)C(=O)N[C@@H](CO)C(=O)N[C@@H](CCSC)C(=O)O)[C@@H](C)O` [3102.0806] (H-EMILSTSSM-OH), 1.5 nM.
With `CC[C@H](C)[C@H](NC(=O)[C@H](CCC(N)=O)NC(=O)[C@@H](N)CC(C)C)C(=O)N[C@@H](Cc1ccccc1)C(=O)N[C@@H](CO)C(=O)N[C@@H](CC(N)=O)C(=O)N[C@@H](CO)C(=O)N[C@H](C(=O)NCC(=O)O)C(C)C` [3102.0809] (H-LQIFSNSVG-OH), the IC50 was 2.1 nM.
For the compound `CC[C@H](C)[C@H](NC(=O)[C@@H](N)Cc1ccc(O)cc1)C(=O)N[C@@H](CO)C(=O)N[C@@H](CCCCN)C(=O)N[C@H](C(=O)N[C@@H](Cc1ccccc1)C(=O)N[C@@H](CCC(=O)O)C(=O)N[C@@H](Cc1c[nH]cn1)C(=O)N[C@H](C(=O)O)C(C)C)C(C)C` [3102.0810] (H-YISKVFEHV-OH), it took 94 nM to reach half-maximal inhibition (IC50).
Consider `CC(C)C[C@H](N)C(=O)N[C@@H](C)C(=O)N[C@@H](CCCCN)C(=O)N[C@@H](CCCCN)C(=O)N[C@@H](CO)C(=O)N[C@@H](Cc1ccc(O)cc1)C(=O)N[C@H](C(=O)N[C@H](C(=O)N[C@@H](Cc1ccccc1)C(=O)O)C(C)C)C(C)C` [3102.0811] (H-LAKKSYVVF-OH), for which half-maximal inhibition (IC50) was put at 97 nM.
Compound `C[C@@H](O)[C@H](N)C(=O)N[C@@H](CO)C(=O)NCC(=O)N[C@@H](CCCCN)C(=O)N[C@@H](Cc1ccc(O)cc1)C(=O)N[C@@H](Cc1ccccc1)C(=O)N[C@@H](CO)C(=O)N[C@H](C(=O)N[C@@H](Cc1ccccc1)C(=O)O)[C@@H](C)O` [3102.0812] (H-TSGKYFSTF-OH) returned a half-inhibitory concentration (IC50) of 86 nM. The IC50 values of the last two compounds are within 1.5-fold of each other.
As for `CC(C)C[C@H](NC(=O)[C@H](CS)NC(=O)[C@H](CO)NC(=O)[C@H](CCCCN)NC(=O)[C@@H](NC(=O)[C@@H](N)CCCCN)C(C)C)C(=O)N[C@@H](CS)C(=O)N[C@@H](CO)C(=O)N[C@@H](Cc1ccccc1)C(=O)O` [3102.0813] (H-KVKSCLCSF-OH), the IC50 was determined as 17 nM.
In turn, `CC[C@H](C)[C@H](NC(=O)[C@H](CCC(N)=O)NC(=O)[C@H](CCCNC(=N)N)NC(=O)[C@H](CC(C)C)NC(=O)[C@@H](N)CCCCN)C(=O)N[C@H](C(=O)N[C@@H](C)C(=O)N[C@@H](Cc1ccc(O)cc1)C(=O)N[C@@H](Cc1ccccc1)C(=O)O)C(C)C` [3102.0815] (H-KLRQIVAYF-OH) gave an IC50 of 7.6 nM.
`CSCC[C@H](NC(=O)[C@@H](NC(=O)[C@H](CC(C)C)NC(=O)[C@H](CC(C)C)NC(=O)[C@H](Cc1ccc(O)cc1)NC(=O)[C@H](CCC(N)=O)NC(=O)[C@@H](N)CC(N)=O)[C@@H](C)O)C(=O)N[C@@H](Cc1ccccc1)C(=O)N[C@@H](Cc1ccccc1)C(=O)O` [3102.0819] (H-NQYLLTMFF-OH) had an IC50 of 1.2 nM.
Regarding `CSCC[C@H](N)C(=O)N[C@@H](CC(C)C)C(=O)N[C@@H](CC(N)=O)C(=O)N[C@H](C(=O)N[C@@H](Cc1ccc(O)cc1)C(=O)NCC(=O)N[C@@H](CCC(=O)O)C(=O)NCC(=O)N[C@@H](Cc1ccccc1)C(=O)O)[C@@H](C)O` [3102.0822] (H-MLNTYGEGF-OH), the IC50 was 2.3 nM.
Compound `CC(C)C[C@H](NC(=O)[C@@H](NC(=O)[C@H](CCCCN)NC(=O)[C@H](CCCCN)NC(=O)[C@H](C)NC(=O)[C@@H](N)CC(C)C)[C@@H](C)O)C(=O)N[C@@H](C)C(=O)N1CCC[C@H]1C(=O)N[C@@H](Cc1ccccc1)C(=O)O` [3102.0825] (H-LAKKTLAPF-OH) displayed an IC50 of 2.1 nM.
The value for `CC[C@H](C)[C@H](NC(=O)[C@@H](NC(=O)[C@@H](N)Cc1ccccc1)[C@@H](C)CC)C(=O)N[C@@H](CCCCN)C(=O)N[C@@H](CO)C(=O)N[C@@H](CO)C(=O)N[C@@H](Cc1ccc(O)cc1)C(=O)N[C@H](C(=O)N[C@@H](Cc1ccccc1)C(=O)O)C(C)C` [3102.0827] (H-FIIKSSYVF-OH) was 3.2 nM.
Compound `CC[C@H](C)[C@H](NC(=O)[C@H](Cc1ccc(O)cc1)NC(=O)[C@H](CCSC)NC(=O)[C@@H](N)CC(C)C)C(=O)N[C@@H](CC(C)C)C(=O)NCC(=O)N[C@H](C(=O)N[C@@H](Cc1ccc(O)cc1)C(=O)NCC(=O)O)[C@@H](C)O` [3102.0828] (H-LMYILGTYG-OH) returned an IC50 of 62 nM.
As for `CC[C@H](C)[C@H](NC(=O)[C@@H](NC(=O)[C@@H](NC(=O)[C@H](C)NC(=O)[C@H](CCSC)NC(=O)[C@@H](N)Cc1ccc(O)cc1)[C@@H](C)O)[C@@H](C)O)C(=O)N[C@@H](CC(C)C)C(=O)N[C@@H](CCC(=O)O)C(=O)N[C@@H](CCSC)C(=O)O` [3102.0830] (H-YMATTILEM-OH), the IC50 came out at 2.2 nM.
Compound `CSCC[C@H](NC(=O)[C@@H](NC(=O)[C@H](CCC(=O)O)NC(=O)[C@H](CCSC)NC(=O)[C@H](CC(C)C)NC(=O)[C@H](CCSC)NC(=O)[C@H](Cc1ccccc1)NC(=O)[C@@H](NC(=O)[C@H](C)N)C(C)C)[C@@H](C)O)C(=O)O` [3102.0831] (H-AVFMLMETM-OH) displayed an IC50 of 26 nM.
The value for `CC(C)C[C@H](NC(=O)[C@H](Cc1c[nH]cn1)NC(=O)[C@@H](NC(=O)[C@H](Cc1ccccc1)NC(=O)[C@H](Cc1ccc(O)cc1)NC(=O)[C@H](CS)NC(=O)[C@H](Cc1ccc(O)cc1)NC(=O)[C@H](CC(C)C)NC(=O)CN)[C@@H](C)O)C(=O)O` [3102.0832] (H-GLYCYFTHL-OH) was 6.9 nM; that for `NCCCC[C@H](NC(=O)[C@H](CCCCN)NC(=O)[C@H](CO)NC(=O)[C@@H](N)CCCCN)C(=O)N[C@@H](Cc1ccc(O)cc1)C(=O)N[C@@H](CCC(=O)O)C(=O)NCC(=O)N1CCC[C@H]1C(=O)N[C@@H](Cc1ccccc1)C(=O)O` [3102.0833] (H-KSKKYEGPF-OH) was 1.9 nM; that for `CSCC[C@H](NC(=O)[C@@H](N)CC(C)C)C(=O)N[C@@H](CC(N)=O)C(=O)N[C@@H](CC(N)=O)C(=O)N[C@@H](CC(C)C)C(=O)N[C@@H](CC(=O)O)C(=O)N[C@H](C(=O)N[C@@H](CC(C)C)C(=O)N[C@@H](Cc1ccccc1)C(=O)O)[C@@H](C)O` [3102.0836] (H-LMNNLDTLF-OH) was 86 nM.
`CC[C@H](C)[C@H](NC(=O)[C@H](CO)NC(=O)[C@@H](NC(=O)[C@H](CS)NC(=O)[C@@H](NC(=O)[C@H](CO)NC(=O)[C@H](CCCNC(=N)N)NC(=O)[C@H](CCSC)NC(=O)[C@@H](N)CC(C)C)[C@@H](C)CC)C(C)C)C(=O)O` [3102.0838] (H-LMRSICVSI-OH) registered a concentration for half-maximal inhibition (IC50) of 63 nM.
